As usually defined, the IC50 is the point on the concentration scale where inhibition reaches its midpoint.

Experimental findings from ChEMBL document CHEMBL5308541, “MAIP: An Open-Source Tool to Enrich High-Throughput Screening Output and Identify Novel, Druglike Molecules with Antimalarial Activity” (ACS Med Chem Lett, 2023) are described below.

Data set [1] has as its system Plasmodium falciparum. Put plainly: Hit confirmation in dose-response curve in NF54 nanoGlo assay, at 72h. The format is functional, organism-based, Erythrocyte. Also on record: timepoint 72 hour.
The subject of data set [2] is Plasmodium falciparum. Nature of the data set: Hit confirmation in dose-response curve in NF54 pLDH assay, at 72h. The format is functional, organism-based, Erythrocyte. The arrangement: timepoint 72 hour.
In data set [3] the test system is Plasmodium falciparum. Nature of the data set: Hit confirmation in dose-response curve in Dd2 pLDH assay, at 72h. The format is functional, organism-based, Erythrocyte. The arrangement: timepoint 72 hour.
Data set [4] relates to Plasmodium falciparum. Nature of the data set: Hit confirmation in dose-response curve in NF54 nanoGlo assay, at 12h. Format: functional, organism-based, Erythrocyte. Also on record: timepoint 12 hour.
The nature of data set [5]: (§1) Hit confirmation in dose-response curve in HepG2 cytotoxicity assay, at 72h. Format: toxicity, cell-based, Homo sapiens. The arrangement: timepoint 72 hour. The following applies: human, HepG2 cells.
The test system of data set [6] is Plasmodium falciparum. Put plainly: Re-testing in dose-response curve in 3D7 pLDH assay, at 72h. The format is functional, organism-based, Erythrocyte. Also on record: timepoint 72 hour.
Data set [7] is described as follows: (§2) Re-testing in dose-response curve in HepG2 cytotoxicity assay, at 72h. Format: toxicity, cell-based, Homo sapiens. The arrangement: timepoint 72 hour. The following applies: human, HepG2 cells.
The subject of data set [8] is HepG2. Described as §2. The format is toxicity, cell-based, Homo sapiens. Also on record: timepoint 72 hour. The following applies: hepg2.
The subject of data set [9] is Plasmodium falciparum. Nature of the data set: Re-testing in dose-response curve in Dd2 pLDH assay, at 72h. Format: functional, organism-based, Erythrocyte. The arrangement: timepoint 72 hour.
Data set [10] has as its system HepG2. The data set is described as §1. Also on record: timepoint 72 hour. The format is toxicity, cell-based, Homo sapiens. The following applies: hepg2.
Setting [11] is: Plasmodium falciparum, NF54, Erythrocyte, 72 h.
Where [12] appears, read: Plasmodium falciparum, Dd2, Erythrocyte, 72 h.
[13] abbreviates: Plasmodium falciparum, NF54, Erythrocyte, 12 h.
[14] abbreviates: Plasmodium falciparum, 3D7, Erythrocyte, 72 h.

Molecules are shown by their SMILES. “And” between values parts separate entries of the source, which are not always exact repeats. Identical values can stand only once.

For the compound `CCCc1cccc(CNC2CCN(C3CCN(C)CC3)CC2)c1`, the half-maximal inhibitory concentration (IC50) is 1820 nM in data set [1] (setting [11]); 1550 nM in data set [2] (setting [11]); 1380 nM in [3] (setting [12]); 4790 nM in data set [4] (setting [13]); 620 nM [middle of 4 runs] in [6] (erythrocyte); 7920 nM in data set [8]. Further, the figures for the 50% inhibitory concentration (IC50) in data set [9] (setting [12]) and in data set [9] (erythrocyte) were 1370 nM and 1410 nM, respectively. Also, the IC50 at 72 h is above 10000 nM in data set [5] and 11000 nM in [7].

As for `CCOc1cc(C(=O)NC2CCN(CC3CCCC3)CC2)cc(-c2ccccc2)c1OC`, the IC50 was 1480 nM in [1] (setting [11]); 3890 nM in [2] (setting [11]); 1580 nM in data set [3] (setting [12]); 3720 nM in [4] (setting [13]); 593 nM [middle of 6 runs] in [6] (erythrocyte); 10300 nM in data set [8]. Besides, the 50% inhibitory concentration (IC50) in data set [9] (setting [12]) is 11500 nM; in data set [9] (erythrocyte), 10700 nM and 8370 nM and 8120 nM. For the same compound, the half-inhibitory concentration (IC50) at 72 h in data set [5] is above 10000 nM; in [7], 10000 nM.

Turning to `CN(C)C1(CNc2nc(C(F)(F)F)nc3cc(F)ccc23)CCCCCC1`, the IC50 was 1020 nM in data set [1] (setting [11]); 724 nM in data set [2] (setting [11]); 1660 nM in [3] (setting [12]); above 10000 nM in data set [4] (setting [13]); 460 nM in data set [6] (setting [14]); 360 nM in data set [6] (erythrocyte). Also, the IC50 in [8] was 9280 nM; in data set [9] (setting [12]) it was 1740 nM; in data set [9] (erythrocyte), 1760 nM. For the same compound, the IC50 at 72 h in [5] is above 10000 nM; in [7] it was 8910 nM.

As to `O=C(n1nnc2cc(Cl)c(Cl)cc21)C(F)(F)F`, the IC50 in data set [1] (setting [11]) was above 10000 nM; in data set [2] (setting [11]), 4900 nM; in [3] (setting [12]), 955 nM; in data set [4] (setting [13]), above 10000 nM; in [6] (setting [14]), 254 nM; in data set [6] (erythrocyte), 291 nM. The values for the concentration for half-maximal inhibition (IC50) in [8], in data set [9] (setting [12]) and in [9] (erythrocyte) were 24800 nM, 1050 nM and 937 nM, respectively. In addition, the concentration for half-maximal inhibition (IC50) at 72 h in [5] is above 10000 nM; in [7] it was 21000 nM.

Regarding `CC(C)c1ccc(-c2nc(CN3CCCCC3)cc(CN3CCCCC3)c2O)cc1`, the IC50 in data set [1] (erythrocyte) is 1780 nM; in [2] (erythrocyte) it was 2690 nM; in data set [3] (erythrocyte), 1580 nM; in [4] (erythrocyte) it was 3980 nM; in data set [10] it was above 10000 nM; in data set [8] it was above 25000 nM. The results for the half-inhibitory concentration (IC50) in data set [9] (setting [12]) and in data set [9] (erythrocyte) were 949 nM and 923 nM, respectively.

With `Cc1ccc(-c2cc(C(=O)NC3CCN(C4CCN(C)CC4)CC3)n[nH]2)cc1C`, the half-maximal inhibitory concentration (IC50) amounted to 955 nM in data set [1] (setting [11]); 1380 nM in data set [2] (setting [11]); 955 nM in data set [3] (setting [12]); 1550 nM in data set [4] (setting [13]); 621 nM in [6] (setting [14]); 597 nM in [6] (erythrocyte). Besides, the IC50 in data set [8] was found to be 7030 nM; in [9] (setting [12]) it was 1190 nM; in data set [9] (erythrocyte), 1230 nM. The IC50 at 72 h is 7760 nM in data set [5] and 5930 nM in [7].
